# PMC4403932 (Journal of Medicinal Chemistry, 2015)
# Where two headings read alike, the source gives them in different places.
# Key:
# Assay type in all cases: binding
# [1] = target: T1, BRD2(1) (Homo sapiens, UniProt P25440); test: Protein stability (thermal) shift assay, BRD2(1); conditions: compound 10 μM, protein 2 μM; average of triplicate
# T1 construct: Fragments were tested in a thermal shift assay against bromodomains of the BET subfamily; made in house
# Description: (§1) Thermal melting experiments were carried out using an Mx3005p real time PCR machine (Stratagene). Proteins were buffered in 10 mM HEPES, pH 7.5, 500 mM NaCl and assayed in a 96-well plate at a final concentration of 2 μM in 20 μL volume. Compounds were added at a final concentration of 10 or 100 μM. SYPRO Orange (Molecular Probes) was added as a fluorescence probe at a dilution of 1 in 1000. Excitation and emission filters for the SYPRO-Orange dye were set to 465 and 590 nm, respectively. The temperature was raised with a step of 3 °C per minute from 25 to 96 °C, and fluorescence readings were taken at each interval. The temperature dependence of the fluorescence during the protein denaturation process was approximated by the equation [drawing 1] where ΔuG is the difference in unfolding free energy between the folded and unfolded state, R is the gas constant, and yF and yU are the fluorescence intensity of the probe in the presence of completely folded and unfolded protein, respectively.[65] The baselines of the denatured and native states were approximated by a linear fit. The observed temperature shifts, ΔTm^obs, were recorded as the difference between the transition midpoints of sample and reference wells containing protein without ligand in the same plate and determined by nonlinear least-squares fit. Temperature shifts (ΔTm^obs) for three independent measurements per proteins/compound are summarized in Supporting Information Table S1.
# [2] = target: T2, BRD3(2) (Homo sapiens, UniProt Q15059); test: Protein stability (thermal) shift assay, BRD3(2); conditions: compound 10 μM, protein 2 μM; average of triplicate
# T2 construct: made in house
# T2 sequence (Q15059 306-415 limits assumed): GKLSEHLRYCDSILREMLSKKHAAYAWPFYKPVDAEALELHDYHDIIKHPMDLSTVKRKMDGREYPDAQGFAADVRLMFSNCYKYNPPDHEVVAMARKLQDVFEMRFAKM
# Description: as §1
# [3] = target: T3, BRD3(1) (Homo sapiens, UniProt Q15059); test: Protein stability (thermal) shift assay, BRD3(1); conditions: compound 10 μM, protein 2 μM; average of triplicate
# T3 construct: Fragments were tested in a thermal shift assay against bromodomains of the BET subfamily; made in house
# T3 sequence (Q15059 34-140 limits assumed): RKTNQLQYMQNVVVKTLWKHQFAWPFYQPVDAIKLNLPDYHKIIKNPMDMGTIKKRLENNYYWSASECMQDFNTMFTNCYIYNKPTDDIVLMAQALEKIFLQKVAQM
# Description: as §1
# [4] = target: T4, PCAF (Homo sapiens, UniProt Q92831); test: Protein stability (thermal) shift assay, PCAF; conditions: compound 10 μM, protein 2 μM; average of triplicate
# T4 construct: representative BRDs from other structural subfamilies (family I, PCAF); made in house
# T4 sequence (Q92831 723-827 limits assumed): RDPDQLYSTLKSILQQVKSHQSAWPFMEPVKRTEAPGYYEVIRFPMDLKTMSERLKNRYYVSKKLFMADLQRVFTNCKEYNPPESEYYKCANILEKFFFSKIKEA
# Description: as §1
# [5] = target: T5, CREBBP (Homo sapiens, UniProt Q92793); test: Protein stability (thermal) shift assay, CREBBP
# T5 construct: small thermal shits (1.0–1.3 °C) for the bromodomain of CREBBP; made in house
# T5 sequence (Q92793 1085-1192 limits assumed): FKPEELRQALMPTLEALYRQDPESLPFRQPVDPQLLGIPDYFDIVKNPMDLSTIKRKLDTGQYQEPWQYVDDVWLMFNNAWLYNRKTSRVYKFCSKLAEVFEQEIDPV
# Description: as §1
# [6] = target: T6, BRD4(2) (Homo sapiens, UniProt O60885); test: Protein stability (thermal) shift assay, BRD4(2); conditions: compound 10 μM, protein 2 μM; average of triplicate
# T6 construct: made in house
# Description: as §1
# [7] = target: T7, BRDT(1) (Homo sapiens, UniProt Q58F21); test: Protein stability (thermal) shift assay, BRDT(1); conditions: compound 10 μM, protein 2 μM; average of triplicate
# T7 construct: made in house
# Description: as §1
# [8] = target: T8, BRDT(2) (Homo sapiens, UniProt Q58F21); test: Protein stability (thermal) shift assay, BRDT(2); conditions: compound 10 μM, protein 2 μM; average of triplicate; read-out: ΔTm Shift, BRDT(2)
# T8 construct: made in house
# Description: as §1
# [9] = target: T9, BRD9 (Homo sapiens, UniProt Q9H8M2); test: Isothermal titration calorimetry, BRD9; conditions: for Kd / ΔG / N (stoichiometry) / ΔHobs / TΔS: ITC, 15 °C; for Kd: 50 mM HEPES pH 7.5, 150 mM NaCl, triplicate, read-out: KD; for Kd / N (stoichiometry) / ΔHobs: reverse titration; for LE (ligand efficiency): LE = ΔG/N, N number of non-hydrogen atoms
# T9 construct: made in house
# T9 sequence (Q9H8M2 136-240 limits assumed): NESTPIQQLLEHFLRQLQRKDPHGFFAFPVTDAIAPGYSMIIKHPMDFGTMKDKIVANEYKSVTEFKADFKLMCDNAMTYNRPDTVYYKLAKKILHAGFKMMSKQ
# Description: (§2) Experiments were carried out on an ITC200 titration microcalorimeter from MicroCal, LLC (GE Healthcare) equipped with a Washing module, with a cell volume of 0.2003 mL, and a 40 μL microsyringe. Experiments were carried out at 15 °C while stirring at 1000 rpm, in ITC buffer (50 mM HEPES, pH 7.5 (at 25 °C), 150 mM NaCl). The microsyringe was loaded with a solution of the protein sample (300−740 μM protein for BRD9 and BRD4(1), respectively, in ITC buffer) and was carefully inserted into the calorimetric cell which was filled with an amount of the ligand (0.2 mL, 20–25 μM in ITC buffer). The system was first allowed to equilibrate until the cell temperature reached 15 °C, and an additional delay of 60 s was applied. All titrations were conducted using an initial control injection of 0.3 μL followed by 38 identical injections of 1 μL with a duration of 2 s (per injection) and a spacing of 120 s between injections. The titration experiments were designed in such a fashion as to ensure complete saturation of the proteins before the final injection. The heat of dilution for the proteins was independent of their concentration and corresponded to the heat observed from the last injection, following saturation of ligand binding, thus facilitating the estimation of the baseline of each titration from the last injection. The collected data were corrected for protein heats of dilution (measured on separate experiments by titrating the proteins into ITC buffer) and deconvoluted using the MicroCal Origin software supplied with the instrument to yield enthalpies of binding (ΔH) and binding constants (KB) in the same fashion as that previously described in detail by Wiseman and co-workers.[66] Thermodynamic parameters were calculated using the basic equation of thermodynamics (ΔG = ΔH – TΔS = −RT ln KB, where ΔG, ΔH, and ΔS are the changes in free energy, enthalpy, and entropy of binding, respectively). In all cases a single binding site model was employed, supplied with the MicroCal Origin software package.
# [10] = target: T10, BRD4(1) (Homo sapiens, UniProt O60885); test: Protein stability (thermal) shift assay, BRD4(1)
# T10 construct: made in house
# Description: as §1
# [11] = target: T9, BRD9; test: Protein stability (thermal) shift assay, BRD9
# Description: as §1
# [12] = target: T11, BRD2(2) (Homo sapiens, UniProt P25440); test: Protein stability (thermal) shift assay, BRD2(2); conditions: compound 10 μM, protein 2 μM; average of triplicate
# T11 construct: made in house
# T11 sequence (P25440 344-453 limits assumed): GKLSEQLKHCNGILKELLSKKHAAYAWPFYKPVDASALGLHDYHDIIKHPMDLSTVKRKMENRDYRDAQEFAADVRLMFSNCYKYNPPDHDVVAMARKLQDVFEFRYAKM
# Description: as §1
# [13] = target: T12, PB1(5) (Homo sapiens, UniProt Q86U86); test: Protein stability (thermal) shift assay, PB1(5); conditions: compound 10 μM, protein 2 μM; average of triplicate
# T12 construct: made in house
# T12 sequence (Q86U86 653-763 limits assumed): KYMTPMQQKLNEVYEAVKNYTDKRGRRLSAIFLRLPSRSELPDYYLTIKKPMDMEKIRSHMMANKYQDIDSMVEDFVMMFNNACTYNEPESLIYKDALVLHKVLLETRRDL
# Description: as §1
# [14] = target: T13, BAZ2B (Homo sapiens, UniProt Q9UIF8); test: Protein stability (thermal) shift assay, BAZ2B; conditions: compound 10 μM, protein 2 μM; average of triplicate; read-out: ΔTm Shift, BAZ2BA
# T13 construct: representative BRDs from other structural subfamilies (family I, PCAF); family III, CREBBP; family IV, BRD9; family V, BAZ2B; made in house
# T13 sequence (Q9UIF8 2060-2164 limits assumed): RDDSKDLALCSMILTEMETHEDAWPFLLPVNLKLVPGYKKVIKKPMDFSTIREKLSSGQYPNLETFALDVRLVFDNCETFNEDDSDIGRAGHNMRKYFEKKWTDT
# Description: as §1
# [15] = target: T10, BRD4(1); test: Isothermal titration calorimetry, BRD4(1)
# Description: as §2
# [16] = tested on: human bromodomains (panel); test: Protein stability (thermal) shift assay, whole panel of human bromodomains; conditions: 10 μM compound
# Description: as §1
# [17] = thermal shift, 10 μM compound, 2 μM protein, read-out: ΔTm
# [18] = compound 10 μM, protein 2 μM, average of triplicate, read-out: ΔTm Shift, BRD4(1)
# [19] = compound 10 μM, protein 2 μM, average of triplicate, read-out: ΔTm Shift, CREBBP
# [20] = compound 10 μM, protein 2 μM, average of triplicate, read-out: ΔTm Shift, BRD9
# T1 sequence (P25440 74-180 limits assumed): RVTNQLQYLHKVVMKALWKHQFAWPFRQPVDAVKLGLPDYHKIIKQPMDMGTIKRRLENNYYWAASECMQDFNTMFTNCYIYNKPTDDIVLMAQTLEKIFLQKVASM
SMILES,ΔTm at 10 µM [1],ΔTm at 10 µM [2],ΔTm at 10 µM [3],ΔTm at 10 µM [4],ΔTm at 10 µM [6],ΔTm at 10 µM [7],ΔTm at 10 µM [8],Kd [9],ΔG [9],N (stoichiometry) [9],ΔHobs [9],LE (ligand efficiency) [9],"ΔTm at 10 µM [10, 18]","ΔTm at 10 µM [11, 17]",ΔTm at 10 µM [12],ΔTm at 10 µM [13],ΔTm at 10 µM [14],"ΔTm at 10 µM [5, 19]",TΔS [9],"ΔTm at 10 µM [11, 20]",also measured
"COc1ccccc1-c1nc(N)nc2[nH]cnc12 [Compound 7a, 2-Amino-6-(2-methoxyphenyl)-9H-purine]",0.6 °C,2.5 °C,1.4 °C,-0.7 °C,-2.2 °C,0.6 °C,1.4 °C,641 ± 33 nM,–8.16 kcal/mol,1.06 ± 0.004,–12.71 ± 0.07 kcal/mol,0.45,2.3 °C,2.9 °C,1.7 °C,0.236 °C,-0.217 °C,,,,"ΔTm at 10 µM [5, 17]: 1.5 °C"
"CCOc1ccc(Br)cc1-c1nc(N)nc2[nH]cnc12 [Compound 7e, 2-Amino-6-(5-bromo-2-ethoxyphenyl)-9H-purine]",0.4 °C,2.7 °C,1.6 °C,-1.1 °C,-1.5 °C,0.275 °C,1.5 °C,,,,,,1.9 °C,,1.7 °C,0.3 °C,-0.5 °C,0.5 °C,,0.316 °C,"binding to BRD9 in the ΔTm assay (in words) ([11]; thermal shift, 10 μM compound): Affinity for BRD9 was lost"
"Cn1cnc2c(NCc3ccccc3)nc(NCCO)nc21 [olomoucine, reference compound]",,,,,,,,,,,,,,,,,,,,,binding to the bromodomain panel in the ΔTm assay (in words) [16]: did not show any significant stabilization

# Second part, led by results:
ΔTm at 10 µM [1],ΔTm at 10 µM [2],ΔTm at 10 µM [3],ΔTm at 10 µM [4],ΔTm at 10 µM [6],ΔTm at 10 µM [7],ΔTm at 10 µM [8],Kd [9],ΔG [9],N (stoichiometry) [9],ΔHobs [9],LE (ligand efficiency) [9],"ΔTm at 10 µM [10, 18]","ΔTm at 10 µM [11, 17]",ΔTm at 10 µM [12],ΔTm at 10 µM [13],ΔTm at 10 µM [14],"ΔTm at 10 µM [5, 19]",TΔS [9],"ΔTm at 10 µM [11, 20]",SMILES,also measured
0.3 °C,0.8 °C,0.548 °C,-0.151 °C,0.1 °C,-0.111 °C,3 °C,351 ± 18 nM,–8.52 kcal/mol,0.97 ± 0.004,–13.04 ± 0.07 kcal/mol,0.45,0.369 °C,,0.8 °C,0.5 °C,0.3 °C,0.356 °C,–4.52 kcal/mol,2.6 °C,"COc1ccc(F)cc1-c1nc(N)nc2[nH]cnc12 [Compound 7b, 2-Amino-6-(5-fluoro-2-methoxyphenyl)-9H-purine]",
0.4 °C,1.3 °C,0.9 °C,-0.9 °C,0.7 °C,0.272 °C,0.272 °C,297 ± 10 nM,–8.59 kcal/mol,0.98 ± 0.003,–12.05 ± 0.04 kcal/mol,0.45,,3.8 °C,1.2 °C,0.272 °C,0.272 °C,0.272 °C,–3.46 kcal/mol,,"COc1ccc(Cl)cc1-c1nc(N)nc2[nH]cnc12 [Compound 7c, 2-Amino-6-(5-chloro-2-methoxyphenyl)-9H-purine]","Kd ([15]; ITC, 50 mM HEPES pH 7.5, 150 mM NaCl, 15 °C, reverse titration, triplicate, read-out: KD): 2040 ± 118 nM; TΔS ([15]; ITC, 15 °C): 1.29 kcal/mol; ΔG ([15]; ITC, 15 °C): –7.50 kcal/mol; N (stoichiometry) ([15]; ITC, 15 °C, reverse titration): 1.05 ± 0.012; ΔHobs ([15]; ITC, 15 °C, reverse titration): –6.21 ± 0.09 kcal/mol; Kd ([15]; ITC, read-out: dissociation constant): 2040 nM; LE (ligand efficiency) ([15]; LE = ΔG/N, N number of non-hydrogen atoms): 0.39; ΔTm at 10 µM [10, 17]: 1.1 °C"
